Assay results published in patent US20150065345A1, “1,2,4 - TRIAZOLE DERIVATIVES AS HERBICIDALS” (SYNGENTA LIMITED, priority 2012, published 2015).

Assays:
Format in all cases: in vivo
Conditions in all cases: 1000 g/h, evaluated after 13 days, five point scale
[1] = system: Amaranthus retoflexus (AMARE); experiment: Glasshouse herbicide test, post-emergence
Method: (§1) Seeds of a variety of test species are sown in standard soil in pots Alopecurus myosuroides (ALOMY), Amaranthus retoflexus (AMARE), Setaria faberi (SETFA), Echinochloa crus-galli (ECHCG), Lolium perenne (LOLPE), Solanum nigrum (SOLNI), Stellaria media (STEME) and Digitaria sanguinalis (DIGSA). After cultivation for one day (pre-emergence) or after 8 days cultivation (post-emergence) under controlled conditions in a glasshouse (at 24/16° C., day/night; 14 hours light; 65% humidity), the plants are sprayed with an aqueous spray solution derived from the formulation of the technical active ingredient in acetone/water (50:50) solution containing 0.5% Tween 20 (polyoxyethelyene sorbitan monolaurate, CAS RN 9005-64-5). Compounds are applied at 1000 g/h. The test plants are then grown in a glasshouse under controlled conditions in a glasshouse (at 24/16° C., day/night; 14 hours light; 65% humidity) and watered twice daily. After 13 days for pre and post-emergence, the test is evaluated for the percentage damage caused to the plant. The biological activities are shown in the following table on a five point scale (5=80-100%; 4=60-79%; 3=40-59%; 2=20-39%; 1=0-19%).

[2] = system: Digitaria sanguinalis (DIGSA); experiment: Glasshouse herbicide test, post-emergence
Method: as §1

[3] = system: Lolium perenne (LOLPE); experiment: Glasshouse herbicide test, post-emergence
Method: as §1

[4] = system: Stellaria media (STEME); experiment: Glasshouse herbicide test, post-emergence
Method: as §1

[5] = system: Amaranthus retoflexus (AMARE); experiment: Glasshouse herbicide test, pre-emergence
Method: as §1

[6] = system: Digitaria sanguinalis (DIGSA); experiment: Glasshouse herbicide test, pre-emergence
Method: as §1

[7] = system: Lolium perenne (LOLPE); experiment: Glasshouse herbicide test, pre-emergence
Method: as §1

[8] = system: Stellaria media (STEME); experiment: Glasshouse herbicide test, pre-emergence
Method: as §1

[9] = system: Alopecurus myosuroides (ALOMY); experiment: Glasshouse herbicide test, post-emergence
Method: as §1

[10] = system: Echinochloa crus-galli (ECHCG); experiment: Glasshouse herbicide test, post-emergence
Method: as §1

[11] = system: IPOHE; experiment: Glasshouse herbicide test, post-emergence
Method: [The procedure below names another species; the source lists this species under the same test.] as §1

[12] = system: Setaria faberi (SETFA); experiment: Glasshouse herbicide test, post-emergence
Method: as §1

[13] = system: Solanum nigrum (SOLNI); experiment: Glasshouse herbicide test, post-emergence
Method: as §1

[14] = system: Alopecurus myosuroides (ALOMY); experiment: Glasshouse herbicide test, pre-emergence
Method: as §1

[15] = system: Echinochloa crus-galli (ECHCG); experiment: Glasshouse herbicide test, pre-emergence
Method: as §1

[16] = system: IPOHE; experiment: Glasshouse herbicide test, pre-emergence
Method: [The procedure below names another species; the source lists this species under the same test.] as §1

[17] = system: Setaria faberi (SETFA); experiment: Glasshouse herbicide test, pre-emergence
Method: as §1

[18] = system: Solanum nigrum (SOLNI); experiment: Glasshouse herbicide test, pre-emergence
Method: as §1

SMILES	percentage damage caused to the plant, AMARE, POST Application [1]	percentage damage caused to the plant, DIGSA, POST Application [2]	percentage damage caused to the plant, LOLPE, POST Application [3]	percentage damage caused to the plant, STEME, POST Application [4]	percentage damage caused to the plant, AMARE, PRE Application [5]	percentage damage caused to the plant, DIGSA, PRE Application [6]	percentage damage caused to the plant, LOLPE, PRE Application [7]	percentage damage caused to the plant, STEME, PRE Application [8]	percentage damage caused to the plant, ALOMY, POST Application [9]	percentage damage caused to the plant, AMARE, POST Application ([1]; second table)	percentage damage caused to the plant, ECHCG, POST Application [10]	percentage damage caused to the plant, IPOHE, POST Application [11]	percentage damage caused to the plant, SETFA, POST Application [12]	percentage damage caused to the plant, SOLNI, POST Application [13]	percentage damage caused to the plant, ALOMY, PRE Application [14]	percentage damage caused to the plant, AMARE, PRE Application ([5]; second table)	percentage damage caused to the plant, ECHCG, PRE Application [15]	percentage damage caused to the plant, IPOHE, PRE Application [16]	percentage damage caused to the plant, SETFA, PRE Application [17]	percentage damage caused to the plant, SOLNI, PRE Application [18]
Cn1cnnc1NC(=O)c1ccc(S(C)(=O)=O)c(COCC(F)(F)F)c1Cl [Compound 1.001]	5 (5=80-100%)	5 (5=80-100%)	1 (1=0-19%)	5 (5=80-100%)	3 (3=40-59%)	1 (1=0-19%)	1 (1=0-19%)	1 (1=0-19%)	–	–	–	–	–	–	–	–	–	–	–	–
Cc1ccc([N+](=O)[O-])c(C(=O)Nc2nncn2C)c1 [Compound 2.005]	–	–	–	–	–	–	–	–	1 (1=0-19%)	4 (4=60-79%)	1 (1=0-19%)	4 (4=60-79%)	1 (1=0-19%)	4 (4=60-79%)	1 (1=0-19%)	2 (2=20-39%)	1 (1=0-19%)	3 (3=40-59%)	1 (1=0-19%)	2 (2=20-39%)
